Results reported in patent US11000033B2, “Ketone or oxime compound, and herbicide” (NISSAN CHEMICAL CORPORATION, priority 2014, dated 2021).

Key:
Assay type in all cases: in vivo
[1] = system: Echinochloa crus-galli var. crus-galli; assay: Test Example 4: herbicidal effect by soil treatment (symbol H); conditions: application herbicide amount 320 g/ha
Outline: (§1)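 Seeds were sown in sterilized diluvial soil, covered with about 1.5 cm of soil, and the soil surface was sprayed with a water-diluted emulsion of the compound at a predetermined rate. Plants grew in a greenhouse at 25° C. to 30° C.; effects were scored visually 3 weeks after application.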

Abutilon theophrasti = assay: Test Example 5: herbicidal effect by foliage application, plastic box (symbol M); conditions: 320 g/ha, 3 weeks after application
Outline: (§2)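 Seeds were sown in sterilized diluvial soil, covered with about 1.5 cm of soil and grown 14 days in a greenhouse at 25° C. to 30° C. An emulsifiable formulation diluted in water to a set rate was sprayed over foliage, and injury was scored 3 weeks later.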

Alopecurus myosuroides = assay: Test Example 5: herbicidal effect by foliage application, plastic box (symbol J); conditions: 320 g/ha, 3 weeks after application
Outline: as §2

Monochoria vaginalis = assay: Test Example 1: herbicidal activity, application before weed generation in submerged conditions (symbol C); conditions: application herbicide amount 320 g/ha
Outline: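 0–5 visual score, 3 wk post-application. Submerged pots, alluvial soil, water 4 cm; seeds sown mixed, rice at 2.5 leaves transplanted. Emulsion diluted to predetermined dose, applied to water surface at sowing. 25–30 °C greenhouse.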

Scirpus juncoides = assay: Test Example 2: herbicidal activity, application during weed generation in submerged conditions (symbol B); conditions: Table 23; application herbicide amount 320 g/ha; grade 0-5 by criteria of Test Example 1
Outline: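 Treatment timing was the one- to two-leaf stage, with diluted emulsifiable compound dropped onto the paddy water (depth 4 cm) over alluvial soil. All three species grew from a mixed sowing in a 25° C. to 30° C. greenhouse. Injury was judged by eye 3 weeks on.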

Stellaria media = assay: Test Example 4: herbicidal effect by soil treatment (symbol P); conditions: application herbicide amount 320 g/ha
Outline: as §1

Apera spica-venti = assay: Test Example 5: herbicidal effect by foliage application, plastic box (symbol L); conditions: 320 g/ha, 3 weeks after application
Outline: as §2

beet = assay: Test Example 4: effect on crop by soil treatment (symbol f); conditions: application herbicide amount 320 g/ha
Outline: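 The test used sterilized diluvial soil. Seed was set down in spots and overlaid with about 1.5 cm of soil before growth in a greenhouse kept at 25° C. to 30° C.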

Digitaria ciliaris = assay: Test Example 4: herbicidal effect by soil treatment (symbol F); conditions: application herbicide amount 320 g/ha
Outline: as §1

[2] = system: Echinochloa crus-galli var. crus-galli; assay: Test Example 5: herbicidal effect by foliage application, plastic box (symbol H); conditions: 320 g/ha, 3 weeks after application
Outline: as §2

rice plant = assay: Test Example 5: effect on crop by foliage application, plastic box (symbol b); conditions: 320 g/ha, 3 weeks after application
Outline: (§3)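 Plants were raised from seed in a greenhouse (25° C. to 30° C.) after sowing in a plastic box of sterilized diluvial soil.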

rapeseed = assay: Test Example 5: effect on crop by foliage application, plastic box (symbol g); conditions: 320 g/ha, 3 weeks after application
Outline: as §3

CON=C(C)CC1CC(O)=C(c2c(C)cc(C)cc2Br)C1=O (stereo not drawn) [6-038]
H: Echinochloa crus-galli var. crus-galli, herbicidal effect grade [1]: 5 (Herbicidal ratio of 90% or more (almost completely withered))
M: Abutilon theophrasti, herbicidal effect grade (Abutilon theophrasti): 5 (Herbicidal ratio of 90% or more (almost completely withered))
J: Alopecurus myosuroides, herbicidal effect grade (Alopecurus myosuroides): 5 (Herbicidal ratio of 90% or more (almost completely withered))
Herbicidal effect grade, C: Monochoria vaginalis (Monochoria vaginalis): 3 (Herbicidal ratio of 40% or higher and lower than 70%)
Herbicidal effect grade, B: Scirpus juncoides (Scirpus juncoides): 4 (Herbicidal ratio of 70% or higher and lower than 90%)
P: Stellaria media, herbicidal effect grade (Stellaria media): 0 (Herbicidal ratio of 5% or lower (almost no effect))
L: Apera spica-venti, herbicidal effect grade (Apera spica-venti): 5 (Herbicidal ratio of 90% or more (almost completely withered))
f: beet, effect on crop grade (beet): 0 (Herbicidal ratio of 5% or lower (almost no effect))
F: Digitaria ciliaris, herbicidal effect grade (Digitaria ciliaris): 5 (Herbicidal ratio of 90% or more (almost completely withered))
H: Echinochloa crus-galli var. crus-galli, herbicidal effect grade [2]: 5 (Herbicidal ratio of 90% or more (almost completely withered))
b: directly sowed rice plant, effect on crop grade (rice plant): 5 (Herbicidal ratio of 90% or more (almost completely withered))
g: rapeseed, effect on crop grade (rapeseed): 5 (Herbicidal ratio of 90% or more (almost completely withered))

CON=C(C)CC1CC(O)=C(c2c(C)cc(OCC(F)(F)F)cc2C)C1=O (stereo not drawn) [6-049]
H: Echinochloa crus-galli var. crus-galli, herbicidal effect grade [1]: 5 (Herbicidal ratio of 90% or more (almost completely withered))
M: Abutilon theophrasti, herbicidal effect grade (Abutilon theophrasti): 3 (Herbicidal ratio of 40% or higher and lower than 70%)
J: Alopecurus myosuroides, herbicidal effect grade (Alopecurus myosuroides): 5 (Herbicidal ratio of 90% or more (almost completely withered))
Herbicidal effect grade, C: Monochoria vaginalis (Monochoria vaginalis): 4 (Herbicidal ratio of 70% or higher and lower than 90%)
Herbicidal effect grade, B: Scirpus juncoides (Scirpus juncoides): 4 (Herbicidal ratio of 70% or higher and lower than 90%)
P: Stellaria media, herbicidal effect grade (Stellaria media): 4 (Herbicidal ratio of 70% or higher and lower than 90%)
L: Apera spica-venti, herbicidal effect grade (Apera spica-venti): 5 (Herbicidal ratio of 90% or more (almost completely withered))
f: beet, effect on crop grade (beet): 3 (Herbicidal ratio of 40% or higher and lower than 70%)
F: Digitaria ciliaris, herbicidal effect grade (Digitaria ciliaris): 5 (Herbicidal ratio of 90% or more (almost completely withered))
H: Echinochloa crus-galli var. crus-galli, herbicidal effect grade [2]: 5 (Herbicidal ratio of 90% or more (almost completely withered))
b: directly sowed rice plant, effect on crop grade (rice plant): 5 (Herbicidal ratio of 90% or more (almost completely withered))
g: rapeseed, effect on crop grade (rapeseed): 5 (Herbicidal ratio of 90% or more (almost completely withered))
